Assays:
Cdc7/ASK [1] = target: T1, Cdc7/ASK (Homo sapiens, UniProt O00311); assay: Cdc7 biochemical assay Method 3: off-chip mobility shift assay (MSA) run at Carna Biosciences; parameters: purchased Carna Biosciences; host or cells: baculovirus expression system; conditions: MCM2 peptide 1000 nM, ATP 5 μM, 5 hours, read-out: Biochemical method 3 (pIC50) (converted)
Method: This protocol describes a method for assaying Cdc7/ASK for activity. The assay is an off-chip mobility shift assay (MSA) run at Carna Biosciences.
The test compound was dissolved in and diluted with dimethylsulfoxide (DMSO) to achieve 100-fold higher concentration which was specified by the sponsor. Then the solution was further 25-fold diluted with assay buffer to make the final test compound solution. Reference compounds for assay control were prepared similarly. 2. Kinase Cdc7/ASK: Full-length human Cdc7 [1-574(end) amino acids of accession number NP_003494.1] was co-expressed as N-terminal GST-fusion protein (92 kDa) with Dbf4(ASK) [1-674(end) amino acids of accession number NP_006707.1] using baculovirus expression system. GST-Cdc7 was purified by using glutathione sepharose chromatography. 3. Assay Reagents and Procedures Off-Chip Mobility Shift Assay (MSA) • 1) The […] were prepared with assay buffer (20 mM HEPES, 0.01% Triton X-100, 1 mM DTT, pH 7.5) and mixed and incubated in a well of polypropylene 384 well microplate for 5 hours at room temperature. • 2) […] of Termination Buffer (QuickScout Screening Assist MSA; Carna Biosciences) was added to the well. • 3) The reaction mixture was applied to LabChip system (Perkin Elmer), and the product and substrate peptide peaks were separated and quantitated. • 4) The kinase reaction was evaluated by the product ratio calculated from peak heights of product (P) and substrate (S) peptides (P/(P+S)). 4. Reaction Conditions
5. Data Analysis The readout value of reaction control (complete reaction mixture) was set as a 0% inhibition, and the readout value of background (Enzyme(−)) was set as a 100% inhibition, then the percent inhibition of each test solution was calculated. IC50 value was calculated from concentration vs. % Inhibition curves by fitting to a four parameter logistic curve. Results

Cdc7/ASK [2] = target: T1, Cdc7/ASK; assay: Cdc7 biochemical assay Method 1: 384 well ELISA, MCM2 whole protein substrate, Phospho MCM2 (S53) antibody; parameters: purchased; conditions: ATP 2 μM, 90 minutes, read-out: Biochemical method 1 (pIC50) (converted)
Outline: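 Commercial Cdc7/ASK phosphorylates plate-bound MCM2 with 2 μM ATP in Tris pH 8.5/MgCl2/DTT, 4% DMSO, 90 min at room temperature. Phospho-MCM2 (S53) detected by antibody ELISA with AP/PNPP absorbance. Inhibition normalised to DMSO and no-enzyme controls; IC50 from curve fit.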

T1 sequence (O00311 whole entry): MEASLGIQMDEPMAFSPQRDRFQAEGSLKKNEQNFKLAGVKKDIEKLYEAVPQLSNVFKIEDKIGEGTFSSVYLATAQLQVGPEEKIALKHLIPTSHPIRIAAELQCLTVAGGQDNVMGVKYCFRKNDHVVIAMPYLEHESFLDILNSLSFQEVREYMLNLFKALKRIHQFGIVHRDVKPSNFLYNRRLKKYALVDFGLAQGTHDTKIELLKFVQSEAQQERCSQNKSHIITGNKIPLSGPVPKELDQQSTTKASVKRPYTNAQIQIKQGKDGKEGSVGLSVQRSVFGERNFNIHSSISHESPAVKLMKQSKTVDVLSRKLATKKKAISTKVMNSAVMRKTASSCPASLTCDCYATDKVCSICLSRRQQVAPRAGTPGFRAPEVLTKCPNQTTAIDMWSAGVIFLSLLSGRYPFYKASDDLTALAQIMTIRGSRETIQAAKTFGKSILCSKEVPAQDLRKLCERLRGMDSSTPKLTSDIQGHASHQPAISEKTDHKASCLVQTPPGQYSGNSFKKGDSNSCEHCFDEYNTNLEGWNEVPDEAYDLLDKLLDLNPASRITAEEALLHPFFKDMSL
T1 sequence (Q9UBU7 whole entry partner): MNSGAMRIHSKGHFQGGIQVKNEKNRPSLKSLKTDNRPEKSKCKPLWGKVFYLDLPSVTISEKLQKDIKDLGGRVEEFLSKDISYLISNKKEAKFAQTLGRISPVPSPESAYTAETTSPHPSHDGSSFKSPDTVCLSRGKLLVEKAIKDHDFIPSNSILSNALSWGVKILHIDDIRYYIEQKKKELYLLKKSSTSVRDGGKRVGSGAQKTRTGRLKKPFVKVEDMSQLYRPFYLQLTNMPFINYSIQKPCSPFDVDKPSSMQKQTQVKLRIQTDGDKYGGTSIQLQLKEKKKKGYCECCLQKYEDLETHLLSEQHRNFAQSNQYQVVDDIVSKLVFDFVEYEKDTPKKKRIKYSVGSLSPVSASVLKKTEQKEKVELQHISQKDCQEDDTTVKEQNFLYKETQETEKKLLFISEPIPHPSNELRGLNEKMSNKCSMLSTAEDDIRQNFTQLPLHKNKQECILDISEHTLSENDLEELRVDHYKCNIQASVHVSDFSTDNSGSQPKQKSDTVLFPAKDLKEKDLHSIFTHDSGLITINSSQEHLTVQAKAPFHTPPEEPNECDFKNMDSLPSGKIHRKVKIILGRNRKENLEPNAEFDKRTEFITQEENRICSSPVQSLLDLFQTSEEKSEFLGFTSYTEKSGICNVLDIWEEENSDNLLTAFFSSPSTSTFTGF

For C[C@@H]1CNCCN1c1nc(-c2cn[nH]c2C(F)(F)F)[nH]c(=O)c1Cl [Compound 44, 5-chloro-4-[(2R)-2-methylpiperazin-1-yl]-2-[5-(trifluoromethyl)-1H-pyrazol-4-yl]-1H-pyrimidin-6-one], the IC50 (Cdc7/ASK [1]) was 6.17 nM.

O=c1[nH]c(-c2cn[nH]c2C(F)(F)F)nc(C2CCOCC2)c1Cl [Compound 17, 5-chloro-4-tetrahydropyran-4-yl-2-[5-(trifluoromethyl)-1H-pyrazol-4-yl]-1H-pyrimidin-6-one] showed an IC50 (Cdc7/ASK [2]) of 1.2 nM.

Work on C[C@@H]1CNCCN1c1nc(-c2cn[nH]c2Cl)[nH]c(=O)c1Cl [Compound 43, 5-chloro-2-(5-chloro-1H-pyrazol-4-yl)-4-[(2R)-2-methylpiperazin-1-yl]-1H-pyrimidin-6-one] yielded an IC50 (Cdc7/ASK [1]) of 3.89 nM.

Cc1ncsc1-c1nc(N2CCN[C@@H](C(F)(F)F)C2)c(Cl)c(=O)[nH]1 [Compound 28, 5-chloro-2-(4-methylthiazol-5-yl)-4-[(3R)-3-(trifluoromethyl)piperazin-1-yl]-1H-pyrimidin-6-one] showed an IC50 (Cdc7/ASK [2]) of 2.09 nM.

Work on O=c1[nH]c(-c2scnc2Cl)nc(C2CCOCC2)c1Cl [Compound 4, 5-chloro-2-(4-chlorothiazol-5-yl)-4-tetrahydropyran-4-yl-1H-pyrimidin-6-one] yielded an IC50 (Cdc7/ASK [2]) of 1.62 nM.

O=c1[nH]c(-c2scnc2C(F)(F)F)nc(C2CCOCC2)c1Cl [Compound 14, 5-chloro-4-tetrahydropyran-4-yl-2-[4-(trifluoromethyl)thiazol-5-yl]-1H-pyrimidin-6-one] showed an IC50 (Cdc7/ASK [2]) of 1.82 nM.

Work on C[C@@H]1COCCN1c1nc(-c2cn[nH]c2C(F)(F)F)[nH]c(=O)c1Cl [Compound 41, 5-chloro-4-[(3R)-3-methylmorpholin-4-yl]-2-[5-(trifluoromethyl)-1H-pyrazol-4-yl]-1H-pyrimidin-6-one] yielded an IC50 (Cdc7/ASK [1]) of 3.98 nM.

Molecule Cc1ncsc1-c1nc(C2CCOCC2)c(Cl)c(=O)[nH]1 [Compound 6, 5-chloro-2-(4-methylthiazol-5-yl)-4-tetrahydropyran-4-yl-1H-pyrimidin-6-one] has an IC50 (Cdc7/ASK [2]) of 3.8 nM.

From patent US11766434B2, “Pyrimidinone derivatives as CDC7 inhibitors” (Cancer Research Technology Limited, priority 2016, dated 2023)
